Laboratory results taken from paper PMC7979765, “trans-Translation inhibitors bind to a novel site on the ribosome and clear Neisseria gonorrhoeae in vivo” (Nature Communications, 2021).
Like-named read-outs stand apart in the source and are kept apart here.

Assay: Pharmacokinetic analyses in mice (PO suspension, IV, SC)
Assay type: in vivo, mouse
Conditions: in vivo
Experimental: Female CD-1 mice as above were fasted for 2 h prior, and 4 h after dosing. […] […], 3 mice from each group were euthanized by CO2 inhalation, blood was collected by cardiac puncture into K2EDTA collection tubes, and protein was precipitated and analysed by LC/MS-MS for plasma concentrations of MBX-4132. Data were analysed using WinNonLin.
[…] At 0.083, 0.5, 1, 4, 8 and 24 h post dose, blood was collected from 3 mice/group by tail vein or facial bleed into K2EDTA collection tubes, and protein was precipitated and analysed by LC/MS-MS for plasma concentrations of MBX-4132. Sampling was performed serially, with each mouse contributing sample at all time points. Data were analysed using WinNonLin.

[1] = female, CD-1, mouse, sc, 10 mg/kg, SC (10 mg/kg), mean of 3 animals, read-out: MBX 4132 Concentrations in Mouse Plasma, Mean
[2] = female, CD-1, mouse, sc, 10 mg/kg, SC (10 mg/kg), individual animals, read-out: MBX 4132 Concentrations in Mouse Plasma
[3] = female, CD-1, mouse, sc, 25 mg/kg, SC (25 mg/kg), individual animals, read-out: MBX 4132 Concentrations in Mouse Plasma
[4] = female, CD-1, mouse, sc, 25 mg/kg, SC (25 mg/kg), mean of 3 animals, read-out: MBX 4132 Concentrations in Mouse Plasma, Mean
[5] = mouse, iv, 10 mg/kg, IV (10 mg/kg), individual animals, read-out: MBX 4132 Concentrations in Mouse Plasma
[6] = mouse, iv, 10 mg/kg, IV (10 mg/kg), mean of 3 animals, read-out: MBX 4132 Concentrations in Mouse Plasma, Mean
[7] = mouse, po, 10 mg/kg, PO (10 mg/kg), mean of 3 animals, read-out: MBX 4132 Concentrations in Mouse Plasma, Mean
[8] = mouse, po, 10 mg/kg, PO (10 mg/kg), individual animals, read-out: MBX 4132 Concentrations in Mouse Plasma

In the case of `O=C(Nc1nnc(-c2ccc(F)cc2)o1)N1CCc2ccccc2C1` [MBX 4132], the concentration at 8 h (female, CD-1, mouse, po, 10 mg/kg, PO (10 mg/kg susp.), mean of 3 animals, read-out: MBX 4132 Concentrations in Mouse Plasma, Mean) is reported as 9920 ng/mL, the concentration at 24 h (female, CD-1, mouse, po, 10 mg/kg, PO (10 mg/kg susp.), individual animals, read-out: MBX 4132 Concentrations in Mouse Plasma) is reported as < 62.5 ng/mL and the concentration at 0.083 h (female, CD-1, mouse, po, 10 mg/kg, PO (10 mg/kg), mean of 3 animals, read-out: MBX 4132 Concentrations in Mouse Plasma, Mean) is reported as 1260 ng/mL. The concentration at 0.083 h [1] was 786 ng/mL, the concentration at 0.5 h [2] was 3430 ng/mL and the concentration at 0.5 h [1] was 3780 ng/mL. The concentration at 1 h [2] was 3480 ng/mL, the concentration at 1 h [1] was 3350 ng/mL and the concentration at 4 h [2] was 3280 ng/mL. It also gave a concentration at 4 h [1] of 2850 ng/mL, a concentration at 8 h [2] of 2000 ng/mL and a concentration at 8 h [1] of 2430 ng/mL. It also gave a concentration at 24 h [2] of 599 ng/mL, a concentration at 24 h [1] of 608 ng/mL and a concentration at 0.083 h [3] of 1170 ng/mL. For the same molecule, the concentration at 0.083 h [4] was 1510 ng/mL, the concentration at 0.5 h [4] was 5010 ng/mL and the concentration at 1 h [3] was 3020 ng/mL. For the same molecule, the concentration at 1 h [4] was 4580 ng/mL, the concentration at 4 h [3] was 2380 ng/mL and the concentration at 4 h [4] was 3010 ng/mL. The concentration at 8 h [3] was 3420 ng/mL, the concentration at 8 h [4] was 4040 ng/mL and the concentration at 24 h [3] was 1540 ng/mL. The concentration at 24 h [4] was 1800 ng/mL, the concentration at 0.083 h [5] was 74600 ng/mL and the concentration at 0.083 h [6] was 66300 ng/mL. The concentration at 0.5 h [5] was 30600 ng/mL, the concentration at 0.5 h [6] was 32900 ng/mL and the concentration at 1 h [5] was 21000 ng/mL. For the same molecule, the concentration at 1 h [6] was 21400 ng/mL, the concentration at 4 h [5] was 7790 ng/mL and the concentration at 4 h [6] was 7590 ng/mL. For the same molecule, the concentration at 8 h [5] was 3920 ng/mL, the concentration at 8 h [6] was 3730 ng/mL and the concentration at 0.5 h [7] was 1360 ng/mL. It also gave a concentration at 1 h [8] of 1090 ng/mL, a concentration at 1 h [7] of 1440 ng/mL and a concentration at 4 h [8] of 1680 ng/mL. For the same molecule, the concentration at 4 h [7] was 2170 ng/mL, the concentration at 8 h [8] was 4350 ng/mL and the concentration at 8 h [7] was 5110 ng/mL. It also gave a concentration at 24 h [7] of 58 ng/mL.
